Values joined by “and” are separate entries in the source; they are usually repeats but may differ in a detail not shown here. Equal entries are not always repeated. Toxic doses and inconclusive results are not listed. Cut-off read from the data, not from the text of the source: active = T/C of 150% or more; inactive = T/C below 125%.
Tested on: L1210 leukemia ip in BDF1 mice, survival T/C
Assay: NCI In Vivo Anticancer Drug Screen. Data for tumor model L1210 Leukemia (intraperitoneal) in B6D2F1 (BDF1) mice
Conditions: endpoint: mean survival time, higher = longer survival
Summary of the method: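 Value reflects the ratio of survival in compound-treated mice to survival in vehicle-treated controls, with both groups carrying the same transplanted tumor.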

[1] = dose: 100.0 mg/kg/injection, schedule: Q04DX002 (ip), vehicle: Klucel (hydroxypropylcellulose) (HPC)
[2] = dose: 200.0 mg/kg/injection, schedule: Q04DX002 (ip), vehicle: Klucel (hydroxypropylcellulose) (HPC)
[3] = dose: 400.0 mg/kg/injection, schedule: Q04DX002 (ip), vehicle: Klucel (hydroxypropylcellulose) (HPC)
[4] = dose: 50.0 mg/kg/injection, schedule: Q01DX001 (ip), vehicle: carboxymethylcellulose (CMC)
[5] = dose: 100.0 mg/kg/injection, schedule: Q01DX001 (ip), vehicle: carboxymethylcellulose (CMC)
[6] = dose: 200.0 mg/kg/injection, schedule: Q01DX001 (ip), vehicle: carboxymethylcellulose (CMC)
[7] = dose: 100.0 mg/kg/injection, schedule: Q04DX003 (ip), vehicle: Klucel (hydroxypropylcellulose) (HPC)
[8] = dose: 200.0 mg/kg/injection, schedule: Q04DX003 (ip), vehicle: Klucel (hydroxypropylcellulose) (HPC)
[9] = dose: 400.0 mg/kg/injection, schedule: Q04DX003 (ip), vehicle: Klucel (hydroxypropylcellulose) (HPC)
[10] = dose: 100.0 mg/kg/injection, schedule: Q01DX001 (ip), vehicle: saline
[11] = dose: 200.0 mg/kg/injection, schedule: Q01DX001 (ip), vehicle: saline
[12] = dose: 400.0 mg/kg/injection, schedule: Q01DX001 (ip), vehicle: saline
[13] = dose: 100.0 mg/kg/injection, schedule: Q01DX009 (ip), vehicle: Klucel (hydroxypropylcellulose) (HPC)
[14] = dose: 200.0 mg/kg/injection, schedule: Q01DX009 (ip), vehicle: Klucel (hydroxypropylcellulose) (HPC)
[15] = dose: 400.0 mg/kg/injection, schedule: Q01DX009 (ip), vehicle: Klucel (hydroxypropylcellulose) (HPC)
[16] = dose: 100.0 mg/kg/injection, schedule: Q01DX009 (ip), vehicle: saline
[17] = dose: 200.0 mg/kg/injection, schedule: Q01DX009 (ip), vehicle: saline
[18] = dose: 50.0 mg/kg/injection, schedule: Q01DX009 (ip), vehicle: Klucel (hydroxypropylcellulose) (HPC)
[19] = dose: 25.0 mg/kg/injection, schedule: Q01DX009 (ip), vehicle: Klucel (hydroxypropylcellulose) (HPC)

Measured: T/C

OC1COC(CCl)OC1C1OC(CCl)OCC1O (stereo not given)
inactive: [1] 96 % of control | [2] 96 % of control | [3] 96 % of control

O=P(O)(O)c1ccccc1
inactive: [4] 96 % of control | [5] 107 % of control | [6] 98 % of control

Nc1ccn(Cc2ccccc2)c(=O)n1
inactive: dose: 75.0 mg/kg/injection, schedule: Q01DX001 (ip), vehicle: saline with Tween-80 95 % of control | dose: 150.0 mg/kg/injection, schedule: Q01DX001 (ip), vehicle: saline with Tween-80 94 % of control | dose: 300.0 mg/kg/injection, schedule: Q01DX001 (ip), vehicle: saline with Tween-80 95 % of control

COc1c2c(cc3c1OCO3)C13CCN(C2)C1CC(OC)C1OC13 (stereo not given)
inactive: dose: 5.0 mg/kg/injection, schedule: Q01DX001 (ip), vehicle: other 97 % of control | dose: 10.0 mg/kg/injection, schedule: Q01DX001 (ip), vehicle: other 109 % of control | dose: 20.0 mg/kg/injection, schedule: Q01DX001 (ip), vehicle: other 97 % of control | dose: 40.0 mg/kg/injection, schedule: Q01DX001 (ip), vehicle: other 90 % of control | dose: 80.0 mg/kg/injection, schedule: Q01DX001 (ip), vehicle: other 89 % of control

O=C1C=C(c2ccccc2)C(O)(c2ccccc2)/C1=C/c1ccccc1 (stereo not given)
inactive: dose: 6.25 mg/kg/injection, schedule: Q04DX002 (ip), vehicle: saline with Tween-80 100 % of control | dose: 12.5 mg/kg/injection, schedule: Q04DX002 (ip), vehicle: saline with Tween-80 92 % of control | dose: 25.0 mg/kg/injection, schedule: Q04DX002 (ip), vehicle: saline with Tween-80 92 % of control

O=C(O)c1ccccc1Cl
inactive: [7] 103 % of control | [8] 108 % of control | [9] 102 % of control

CCC(CC)c1cccc2ccccc12
inactive: [10] 98 % of control | [11] 96 % of control | [12] 108 % of control

Fc1cc(N(CCCl)CCCl)ccc1C1N(Cc2ccc(N(CCCl)CCCl)cc2Cl)CCCN1Cc1ccc(N(CCCl)CCCl)cc1Cl
inactive: [4] 96 % of control | [5] 105 % of control | [6] 96 % of control | dose: 400.0 mg/kg/injection, schedule: Q01DX001 (ip), vehicle: carboxymethylcellulose (CMC) 100 % of control

Cc1c(NC(C)C)ccc(NC(C)C)c1C
inactive: dose: 100.0 mg/kg/injection, schedule: Q04DX002 (sc), vehicle: olive oil, sesame oil, peanut oil 100 % of control | dose: 200.0 mg/kg/injection, schedule: Q04DX002 (sc), vehicle: olive oil, sesame oil, peanut oil 100 % of control

NS(=O)(=O)c1ccc(NC(=S)NC(=O)/C=C/c2ccccc2)cc1
inactive: dose: 100.0 mg/kg/injection, schedule: Q01DX009 (sc), vehicle: olive oil, sesame oil, peanut oil 107 % of control | dose: 100.0 mg/kg/injection, schedule: Q04DX003 (sc), vehicle: olive oil, sesame oil, peanut oil 107 % of control | dose: 200.0 mg/kg/injection, schedule: Q01DX009 (sc), vehicle: olive oil, sesame oil, peanut oil 113 % of control | dose: 200.0 mg/kg/injection, schedule: Q04DX003 (sc), vehicle: olive oil, sesame oil, peanut oil 97 % of control | dose: 400.0 mg/kg/injection, schedule: Q01DX009 (sc), vehicle: olive oil, sesame oil, peanut oil 104 % of control | dose: 400.0 mg/kg/injection, schedule: Q04DX003 (sc), vehicle: olive oil, sesame oil, peanut oil 103 % of control

O=C(Nc1ccccc1)C(CCCCN1C(=O)c2ccccc2C1=O)N1C(=O)c2ccccc2C1=O (stereo not given)
inactive: [13] 95 % of control | [14] 106 % of control | [15] 100 % of control

CCN(CC)CCOC(=O)CSC1C2CC3C(C2)C31 (stereo not given)
inactive: dose: 50.0 mg/kg/injection, schedule: Q01DX009 (ip), vehicle: saline 94 % of control | [16] 90 % of control | [17] 123 % of control

CCCCCOC(=O)COc1ccc(Cl)cc1
inactive: [1] 98 % of control | [2] 98 % of control | [3] 103 % of control

C=C1N(C)c2ccc(Cl)cc2C1(C)C
inactive: dose: 50.0 mg/kg/injection, schedule: Q01DX009 (ip), vehicle: saline with Tween-80 102 % of control | dose: 100.0 mg/kg/injection, schedule: Q01DX009 (ip), vehicle: saline with Tween-80 98 % of control | dose: 100.0 mg/kg/injection, schedule: Q04DX003 (ip), vehicle: saline with Tween-80 94 % of control | dose: 200.0 mg/kg/injection, schedule: Q04DX003 (ip), vehicle: saline with Tween-80 96 % of control

O=C1CSCC(=O)O1
inactive: [18] 97 % of control | [13] 89 % of control | [14] 86 % of control

CC(=O)O[C@@H]1[C@H]2O[C@H]2[C@H]2O[C@@]2(COC(=O)c2ccccc2)[C@H]1OC(C)=O
inactive: dose: 100.0 mg/kg/injection, schedule: Q01DX015 (ip), vehicle: carboxymethylcellulose (CMC) 108 % of control | dose: 200.0 mg/kg/injection, schedule: Q01DX015 (ip), vehicle: carboxymethylcellulose (CMC) 107 % of control | dose: 400.0 mg/kg/injection, schedule: Q01DX015 (ip), vehicle: carboxymethylcellulose (CMC) 90 % of control

CN(C)C1CCCCC1
inactive: [19] 105 % of control | [18] 100 % of control | [13] 114 % of control | [7] 117 % of control | [8] 101 % of control | [9] 96 % of control

C[As](C)(=S)[As](C)(C)=S
inactive: dose: 12.5 mg/kg/injection, schedule: Q01DX009 (ip), vehicle: Klucel (hydroxypropylcellulose) (HPC) 97 % of control | dose: 12.5 mg/kg/injection, schedule: Q04DX002 (ip), vehicle: Klucel (hydroxypropylcellulose) (HPC) 107 % of control and 88 % of control | [19] 97 % of control | dose: 25.0 mg/kg/injection, schedule: Q04DX002 (ip), vehicle: Klucel (hydroxypropylcellulose) (HPC) 96 % of control and 91 % of control | [18] 87 % of control

O=C(CNC(=O)NCc1ccco1)N/N=C/c1ccc(Cl)c(Cl)c1
inactive: [18] 89 % of control | [13] 86 % of control and 88 % of control | [15] 90 % of control

Cc1ccc(C(O)C(=O)O)cc1 (stereo not given)
inactive: dose: 75.0 mg/kg/injection, schedule: Q01DX001 (ip), vehicle: acetone 100 % of control | dose: 150.0 mg/kg/injection, schedule: Q01DX001 (ip), vehicle: acetone 96 % of control

O=C(OCc1ccccc1CN1CCOCC1)c1ccc(Cl)cc1
inactive: [1] 103 % of control | [2] 106 % of control | [3] 100 % of control

NNC(=O)C1CC2C(=O)NNC(=O)C2C1C(=O)O (stereo not given)
inactive: [10] 102 % of control | [11] 107 % of control | [12] 113 % of control

CC(C)(CCC(=S)N1CCOCC1)c1ccccc1
inactive: [7] 101 % of control | [8] 102 % of control | [9] 102 % of control

CC1=CC(=O)OC(C)(C)O1
inactive: [16] 103 % of control | dose: 100.0 mg/kg/injection, schedule: Q04DX003 (ip), vehicle: saline 100 % of control | [17] 101 % of control | dose: 200.0 mg/kg/injection, schedule: Q04DX003 (ip), vehicle: saline 91 % of control | dose: 400.0 mg/kg/injection, schedule: Q01DX009 (ip), vehicle: saline 110 % of control | dose: 400.0 mg/kg/injection, schedule: Q04DX003 (ip), vehicle: saline 98 % of control

From PubChem BioAssay AID248 (DTP/NCI, 2004)
